Like-named read-outs stand apart in the source and are kept apart here.
Assays:
[1] = Acute toxicity (LD50) in mice; assay type: in vivo; conditions: mouse, in vivo, mice
[2] = test system: males; conditions: administered to males; comparison substance; cited from earlier work
[3] = test system: spermidine production; conditions: in words; comparison substance; cited from earlier work
[4] = test system: ornithine decarboxylase; conditions: in words; comparison substance; cited from earlier work
[5] = test system: ornithine decarboxylase; test: Inhibition of ornithine decarboxylase; assay type: biochemical; conditions: in words; no test data given
[6] = test system: spermidine production; test: Suppression of spermidine production; conditions: in words; no test data given
[7] = test system: males; test: Anti-fertility activity when administered to males; assay type: in vivo; conditions: in words, no test data given
[8] = test system: Bacillus sp. (ATCC 27860); test: Antibiotic activity against Bacillus sp. (ATCC 27860); assay type: cell-based
Source text: (§1) The anti-microbial properties of the compound of the formula I and its salts are shown by the paper-disc agar-diffusion assay as described by Scannell et al. J. Antibiotics 25: 179-184 (1972). In this assay, Escherichia coli B as test organism, the minimal agar medium described by Scanell et al. was employed for the initial detection and during isolation of the antimetabolite. Similar to N^5 -hydroxy-L-arginine, the diameter of the inhibition zone was proportional to the logarithm of concentration of the compound of formula I within the range of 2 to about 100 λg/ml. A two-fold increase of the concentration of the compound of formula I increased the inhibition zone diameter by 3 mm and a […] solution gave a zone of about 36 mm.
(§2) (ATCC 27860) as againt E. coli.

[9] = test system: mice; test: Acute toxicity (LD50) in mice; assay type: in vivo; conditions: in words
[10] = test system: Escherichia coli B; test: Paper-disc agar-diffusion assay (Scannell et al.), Escherichia coli B as test organism, minimal agar medium; assay type: cell-based
Source text: as §1, §2

## C[C@](N)(CCCNC(=N)N)C(=O)O
[1]; ip
  LD50: > 1000 mg/kg
[1]; po
  LD50: > 1000 mg/kg

## CC(N)(CCCN)C(=O)O (racemic) [D,L-2-methyl ornithine]
[2]
  anti-fertility activity: anti-fertility agent
[3]
  suppression of spermidine production: suppresses spermidine production
[4]
  inhibition of ornithine decarboxylase: inhibitor of ornithine decarboxylase

## C[C@](N)(CCCN)C(=O)O [L-2-methyl ornithine, 2-methyl-L-ornithine]
[5]
  inhibition of ornithine decarboxylase: inhibitor of ornithine decarboxylase
[6]
  suppression of spermidine production: suppresses spermidine production
[7]
  anti-fertility activity: anti-fertility agent

## C[C@](N)(CCCNC(=N)N)C(=O)O [compound of formula I, 2-methyl-L-arginine]
[8]; in words
  activity against Bacillus s.p.: active
[8]; relative to E. coli
  level of activity against Bacillus sp. (ATCC 27860) compared with E. coli: approximately the same level of activity
[9]
  toxicity to vertebrates: relatively non-toxic
[10]; by added amino acids
  reversal of antibiotic activity against Escherichia coli: reversed by L-arginine, L-citrulline, L-ornithine and N^2 -acetyl-L-ornithine
[10]; in words
  activity against Escherichia coli B: active
[10]; two-fold increase of the concentration, Escherichia coli B
  increase of inhibition zone diameter on two-fold increase of concentration: 3 mm
